The results in this text go back to ChEMBL document CHEMBL1157904, “Discovery of pyrazolthiazoles as novel and potent inhibitors of bacterial gyrase” (Bioorg Med Chem Lett, 2010).

The subject of assay [1] is Staphylococcus aureus. In words: Antibacterial activity against wild type Staphylococcus aureus. It counts as functional.
A short description of assay [2]: Inhibition of ATPase activity of Escherichia coli DNA gyrase B.
Assay [3] deals with Escherichia coli. Description: Antibacterial activity against wild type Escherichia coli. The class given is functional.
The subject of assay [4] is Streptococcus pneumoniae. In words: Antibacterial activity against wild type Streptococcus pneumoniae. It counts as functional.
Assay [5] can be described thus: (§1) Inhibition of ATPase activity of Staphylococcus aureus DNA gyrase B.
The test system of assay [6] is Escherichia coli. Description: Antibacterial activity against tol C pump knockout Escherichia coli CAG12184. The class given is functional.
The test system of assay [7] is Staphylococcus aureus. Description: Antibacterial activity against Staphylococcus aureus ATCC 29213. It counts as functional.
The subject of assay [8] is Streptococcus pneumoniae. Description: Antibacterial activity against Streptococcus pneumoniae ATCC 10015. It counts as functional.
In assay [9] the test system is Staphylococcus aureus. The description is as §1.
Assay [10] is described as follows: Selectivity ratio of Ki for Escherichia coli DNA gyraseB to Ki for Staphylococcus aureus DNA gyraseB.

pKi: −log10 of the molar value. Converted amounts (≈) assume the structure as drawn. The source made the active and inactive calls. The rule behind the calls is not given here. Where only a bound is given, the exact number is not on record here.

For `CCOC(=O)c1cc(-c2sc(-c3ccccc3)nc2N2CCOCC2)n[nH]1`, the MIC in the assay on Staphylococcus aureus [1], against Escherichia coli [3] and in the assay on Streptococcus pneumoniae [4] was over 64 µg/mL in each case. In assay [2], this compound gave a pKi of 6.20.

For `COC(=O)NCc1cc(-c2sc(-c3cccnc3)nc2N2CCCCC2)n[nH]1`, the figures for the negative-log Ki (pKi) in [5] and in [2] were 6.52 and 7.25, respectively. The compound further had an MIC with Escherichia coli [6] of over 64 µg/mL. For the same compound, the outcome in the assay on Escherichia coli [3] was inactive.

Take `CCOC(=O)c1cc(-c2sc(-c3cccnc3)nc2CO)n[nH]1`: the MIC against Staphylococcus aureus [1], in the assay with Escherichia coli [3] and against Streptococcus pneumoniae [4] was over 64 µg/mL throughout. The pKi in assay [2] is 6.17.

As to `CCOC(=O)c1cc(-c2sc(-c3cccs3)nc2C)n[nH]1`, the pKi in assay [2] is 5.59.

Turning to `CCNC(=O)c1cc(-c2sc(-c3cccnc3)nc2C)n[nH]1`, in assay [2], the pKi is 6.46. Besides, the minimal inhibitory concentration (MIC) with Escherichia coli [6], against Staphylococcus aureus [7] and against Streptococcus pneumoniae [8] was over 64 µg/mL in each case.

Regarding `CCOC(=O)c1cc(-c2sc(-c3cccnc3)nc2COC)n[nH]1`, the MIC in the assay with Staphylococcus aureus [1], with Escherichia coli [3] and with Streptococcus pneumoniae [4] was over 64 µg/mL each time. This compound also gave a pKi in [2] of 6.55.

For the compound `CCOC(=O)c1cc(-c2sc(-c3cccnc3)nc2C2CCCCC2)n[nH]1`, the pKi in assay [2] was 6.92.

Regarding `CSc1cc(-c2sc(-c3cccs3)nc2C)[nH]n1`, in [2], the pKi is 5.54.

Regarding `CCNC(=O)c1cc(-c2sc(-c3cccnc3)nc2-c2ccccc2)n[nH]1`, the inhibition entry in the assay on Staphylococcus aureus [9] was “Active”. Moreover, in assay [2], the pKi is 7.35. For the same compound, the MIC against Escherichia coli [6] was 4 µg/mL (≈ 10.7 µM); in the assay with Staphylococcus aureus [7], 8 µg/mL (≈ 21.3 µM); in the assay with Streptococcus pneumoniae [8] it was 2 µg/mL (≈ 5.33 µM).

`C#CCOC(=O)NCc1cc(-c2sc(-c3cccnc3)nc2N2CCCCC2)[nH]n1`: in assay [10], the Ratio Ki is 10. In addition, the results for the pKi in [5] and in [2] were 6.62 and 7.96, respectively. Besides, the MIC with Escherichia coli [6] worked out at 1 µg/mL (≈ 2.37 µM). The outcome in the assay with Escherichia coli [3] was inactive.

As for `CC#CCOC(=O)NCc1cc(-c2sc(-c3cccnc3)nc2COC)n[nH]1`, the pKi in assay [5] is 5.96; in assay [2], 7.85. The compound further gave an MIC against Escherichia coli [6] of 8 µg/mL (≈ 20.1 µM). In the assay with Escherichia coli [3], the result was inactive.

`CSc1cc(-c2sc(-c3ccccc3)nc2C)n[nH]1` showed a negative-log Ki (pKi) in assay [2] of 5.46.

Turning to `CC#CCOC(=O)NCc1cc(-c2sc(-c3cccnc3)nc2C2CCCCC2)n[nH]1`, the pKi was 7.16 in [5] and over 8.40 in [2]. Besides, the minimal inhibitory concentration (MIC) in the assay on Escherichia coli [6] was over 64 µg/mL. Further, the result in the assay with Escherichia coli [3] was inactive.

Turning to `CCNC(=O)c1cc(-c2sc(-c3cccnc3)nc2N2CCCCC2)n[nH]1`, the negative-log Ki (pKi) in assay [2] is 7.05. Also, the lowest concentration to inhibit growth against Escherichia coli [6] (MIC) was 32 µg/mL (≈ 83.7 µM).

With `CCNC(=O)c1cc(-c2sc(-c3cccnc3)nc2[C@@H]2CCCCN2)n[nH]1`, in the assay on Staphylococcus aureus [9], the inhibition result was “Active”. The compound further gave a negative logarithm of the Ki (pKi) in assay [2] of 7.40. In addition, the results for the MIC with Escherichia coli [6], in the assay on Staphylococcus aureus [7] and with Streptococcus pneumoniae [8] were 48 µg/mL (≈ 125 µM), 32 µg/mL (≈ 83.7 µM) and 1.5 µg/mL (≈ 3.92 µM), respectively.

With `CCOC(=O)c1cc(-c2sc(-c3cccnc3)nc2-c2ccccc2)n[nH]1`, the pKi in assay [2] is 7.15.

In assay [2], `COC(=O)NCc1cc(-c2sc(-c3ccccc3)nc2N2CCC(O)CC2)[nH]n1` showed a negative logarithm of the Ki (pKi) of 5.97. The same compound showed an MIC against Escherichia coli [6] of over 64 µg/mL. Also, the outcome in the assay on Escherichia coli [3] was inactive.

In [2], `CCNC(=O)c1cc(-c2sc(-c3cccnc3)nc2C2CCCCC2)n[nH]1` had a pKi of 7.21. In addition, the MIC in the assay on Escherichia coli [6] stood at 16 µg/mL (≈ 41.9 µM).

In the case of `CCOC(=O)c1cc(-c2sc(-c3ccccc3)nc2N2CCCCC2)n[nH]1`, the MIC with Staphylococcus aureus [1], in the assay with Escherichia coli [3] and against Streptococcus pneumoniae [4] was over 64 µg/mL each time. In [2], the negative-log Ki (pKi) was 6.68.

Compound `CCNC(=O)c1cc(-c2sc(-c3cccnc3)nc2-c2ccc(Cl)cc2)n[nH]1` gave a pKi in assay [2] of 7.33. Besides, the MIC was 8 µg/mL (≈ 19.5 µM) with Escherichia coli [6], 8 µg/mL (≈ 19.5 µM) in the assay on Staphylococcus aureus [7] and 4 µg/mL (≈ 9.76 µM) against Streptococcus pneumoniae [8].

As for `CCc1cc(-c2sc(-c3cccs3)nc2C)n[nH]1`, the negative-log Ki (pKi) in assay [2] was 5.32.

For `CCOC(=O)c1cc(-c2sc(-c3cccnc3)nc2C)n[nH]1`, the pKi in assay [2] is 6.48.

For the compound `CCCc1nc(-c2ccccc2)sc1-c1cc(C(=O)OCC)[nH]n1`, the pKi in assay [2] was 6.10.

With `CCOC(=O)c1cc(-c2sc(-c3ccccc3)nc2-c2ccccc2)n[nH]1`, in assay [2], the pKi is 6.85.

As for `CCOC(=O)c1cc(-c2sc(-c3cccnc3)nc2N2CCC(C)CC2)n[nH]1`, the minimal inhibitory concentration (MIC) against Staphylococcus aureus [1], in the assay on Escherichia coli [3] and in the assay with Streptococcus pneumoniae [4] was over 64 µg/mL each time. This compound gave a negative logarithm of the Ki (pKi) in [2] of 5.98.

As to `CCNC(=O)c1cc(-c2sc(-c3cccnc3)nc2[C@H]2CCCCN2)n[nH]1`, in the assay with Staphylococcus aureus [9], the inhibition result is “Active”. In addition, in assay [2], the pKi was 5.47. Further, the MIC in the assay on Escherichia coli [6], against Staphylococcus aureus [7] and in the assay on Streptococcus pneumoniae [8] was over 64 µg/mL throughout.

With `CC#CCOC(=O)NCc1cc(-c2sc(-c3cccnc3)nc2N2CCCCC2)n[nH]1`, the pKi is 6.85 in [5] and over 8.40 in assay [2]. Moreover, the MIC in the assay with Escherichia coli [6] came to 0.5 µg/mL (≈ 1.15 µM). For the same compound, the outcome with Escherichia coli [3] was inactive.

In the case of `CCOC(=O)c1cc(-c2sc(-c3ccccc3)nc2C)n[nH]1`, the pKi in assay [2] was 5.77.

`CCOC(=O)c1cc(-c2sc(-c3cccnc3)nc2C2CC2)n[nH]1` gave a negative-log Ki (pKi) in assay [2] of 6.62.

In the case of `CCNC(=O)c1cc(-c2sc(-c3cccnc3)nc2[C@@H]2CCCN2)n[nH]1`, the pKi in assay [2] was 7.09. Inhibition of growth in the assay with Escherichia coli [6] (MIC) required 32 µg/mL (≈ 86.8 µM).
